Experiments:
Type in all cases: cell-based, Human
[1] = test system: HT 29 (Colon adenocarcinoma); assay: In vitro cytotoxicity, microculture tetrazolium (MTT) assay, HT29; conditions: further 48 h, Table 1
Method: (§1) The microculture tetrazolium assay was used to test in vitro cytotoxicity. This assay is described in Plumb, J. A. et al., 1989 Cancer Research 49, 4435-4440, which is herein incorporated by reference. The cytotoxicity of compounds towards tumor cells is measured in vitro using the assay. This assay method is based upon the ability of live, but not dead cells to reduce the yellow water soluble dye 3-(4,5-dimethylthiazol-2-yl)-2,5-diphenyltetrazolium bromide (MTT) to its water insoluble purple formazan product.
(§2) Human Tumor Cell lines, used were:
HT 29 (Colon adenocarcinoma) ATCC catalog #HTB-38.
(§3) The cells were maintained in exponential growth in culture in minimal essential media (MEM) supplemented with non-essential amino acids, and containing 15% (v/v) fetal. bovine serum, 5 mM L-glutamine, 1 mM sodium pyruvate, and 0.1 U/ml insulin. All cell lines were grown at 37° C. in an atmosphere of 5% CO2 in air.
(§4) MTT: 2 mg/ml in phosphate buffered saline (stable at 4° C. in dark for 1 week).
(§5) Sorensen's buffer: 0.1M glycine/NaOH, pH 10.5, containing 0.1M NaCl.
(§6) Test compounds: 20 mM in DMSO and diluted to a final concentration of 200 μM in culture medium before use.
(§7) For each assay, doxorubicin is included as an inter-assay standard. This allows us to monitor the behaviour of the assay in general, and in particular, to check that the SKVLB line has maintained its resistant phenotype.
(§8) The assays are carried out in 96-well (8 well×12 well) microtiter plates. Serial dilutions of the compound are tested along the length of the plate. A 1:3 serial dilution of compound in culture medium covers a concentration range from 100 μM to 1.7 nM. Each concentration of compound is tested in quadruplet, allowing two compounds to be tested per plate. Wells containing no cells (blank) and cells with no test compound (control) are included on each plate.
(§9) Cells are plated out in 100 μl of culture medium in the microtiter plates at a density of around 1,500-4,000 cells per well. The plates are incubated overnight to allow the cells to become adherent after which the test compound is added (100 μl of appropriate dilution per well). The cells are incubated with test compound at 37° C. for 48 h after which the compound is replaced with fresh medium. After a further 48 h incubation at 37° C., 50 μl of MTT solution (2 mg/ml) is added to each well. The plates are incubated in the dark for 4 h at 37° C. after which the medium is removed. The MTT formazan product is extracted from the cells by the addition of 200 μl DMSO followed by 50 μl of Sorensen's buffer. The plates are shaken briefly and the absorbance at 570 nm is read using a Molecular Devices UV max plate reader. Curves are fit to the MTT assay data using a four parameter logistic equation, and the data are normalized to fit a 0% to 100% survival scale.

[2] = test system: SKVLB (Ovarian; multidrug resistant); assay: In vitro cytotoxicity, microculture tetrazolium (MTT) assay, SKVLB; conditions: SKVLB multidrug resistant ovarian, 48 h with compound, further 48 h, MTT, Table 1
Method: as §1, §2
SKVLB (Ovarian; multidrug resistant)--Dr. V. Ling, Ontario Cancer Institute.
as §3, §4, §5, §6, §7, §8, §9

[3] = test system: SKOV3 (Ovarian adenocarcinoma); assay: In vitro cytotoxicity, microculture tetrazolium (MTT) assay, SKOV3; conditions: SKOV3 ovarian adenocarcinoma, 48 h with compound, further 48 h, MTT, Table 1
Method: as §1, §2
SKOV3 (Ovarian adenocarcinoma)--provided by Dr. V. Ling, Ontario Cancer Institute.
as §3, §4, §5, §6, §7, §8, §9

[4] = test system: Lox (Melanoma); assay: In vitro cytotoxicity, microculture tetrazolium (MTT) assay, LOX; conditions: Homo sapiens, 48 h with compound, further 48 h, Table 1
Method: as §1, §2
Lox (Melanoma)--Southern Research Institute.
as §3, §4, §5, §6, §7, §8, §9

[5] = test system: T47D (Ductal carcinoma of breast); assay: In vitro cytotoxicity, microculture tetrazolium (MTT) assay, T47D; conditions: 48 h with compound, further 48 h, Table 1
Method: as §1, §2
T47D (Ductal carcinoma of breast)--ATCC catalog #HTB-133.
as §3, §4, §5, §6, §7, §8, §9

[6] = Homo sapiens, HT-29, 48 h with compound

Structure (SMILES) | IC50 [1, 6] [nM] | IC50 ([2]; Homo sapiens) [nM] | IC50 ([3]; Homo sapiens, SK-OV-3) [nM] | IC50 [4] [nM] | IC50 [5] [nM] | IC50 ([1]; 48 h with compound) [nM] | IC50 [3] [nM] | IC50 ([5]; Homo sapiens) [nM] | IC50 [2] [nM]
C[C@@H]1O[C@@H](OC2OC(C#N)CC3=C2C(=O)c2ccccc2C3=O)C[C@H](NC(=O)C(F)(F)F)[C@@H]1O (mixture of isomers) [BCH1688, (1'-S, 1-R, 3-S) and (1'-S, 1-S, 3-R)-3-cyano-1-[2',3',6'-trideoxy-3'-trifluoroacetamido-4'-hydroxy-L-lyxohexopyranose)-5,10-dioxo-3,4,5,10-tetrahydronaphtho-[2,3C]pyran-3-yl] | 1350 | 2770 | 634 | 402 |  |  |  |  | 
COC(=O)C1(C(=O)OC)CC2=C(CO1)C(=O)c1ccccc1C2=O [BCH1665, 3,3-bis-(methoxycarbonyl)-5,10-dioxo-3,4,5,10-tetrahydro-1H-naphtho-[2,3-c]-pyran] | 60400 | 28900 | 25400 | 11500 |  |  |  |  | 
CC(=O)C1CC2=C(C(=O)c3ccccc3C2=O)C(OC2CC(NC(=O)C(F)(F)F)C(O)C(C)O2)O1 [BCH2145, (1S, 3R)-1-(2',3',6'-trideoxy-3'-trifluoroacetamido-4'-hydroxy-1,5-dihydro-L-lyxohexopyranose-2-yl)-5,10-dioxo-3,4,5,10-tetrahydro-1H-naphtho-[2,3-c] pyran] |  |  |  |  | 1780 |  |  |  | 
COC(=O)C1=CC2=C(CO1)C(=O)c1ccccc1C2=O [BCH2830, 3-methoxy carbonyl-5,10-dioxo-5,10-dihydro-1H-naphtho-[2,3-c]-pyran] | 12500 |  | 7120 |  |  |  |  |  | 
COC1OC(C(=O)NCCN2CCOCC2)=CC2=C1C(=O)c1ccccc1C2=O (stereo not shown) [BCH2170, 1-methoxy-3-[2-(N-morpholino)ethylaminocarbonyl]-5,10-dioxo-5,10-dihydro-1H-naphtho-[2,3-c]-pyran] | 244 | 394 | 259 |  |  |  |  |  | 
CC(=O)[C@]1(C)CC2=C(C(=O)c3ccccc3C2=O)[C@H](O[C@H]2C[C@H](NC(=O)C(F)(F)F)[C@H](O)[C@H](C)O2)O1 [BCH2090, (1'S,1S,3S)-1-(3'-trifluoroacetamido-2',3',6'-trideoxy-lyxo-L-hexopyranose)-3-acetyl-3-methyl-3,4,5,10-tetrahydro-5,10-dioxo-1H-naphtho-[2,3-c]pyran] | 10400 | 36000 | 11000 |  |  |  |  |  | 
COC1OC(C(=O)NCCCN2CCCC2=O)=CC2=C1C(=O)c1ccccc1C2=O (stereo not shown) [BCH2166, 1-methoxy-3-(3-N-pyrrolidinomylpropylaminocarbonyl)-5,10-dioxo-5,10-dihydro-1H-naphtho-[2,3-c]-pyran] |  |  |  |  | 237 | 443 to 1200 | 140 to 181 |  | 
CC(C)OC(=O)[C@@H]1CC2=C(C(=O)c3ccccc3C2=O)[C@@H](O[C@H]2C[C@H](NC(=O)C(F)(F)F)[C@H](O)[C@H](C)O2)O1 [BCH2122, (1'S, 1R, 3S)-5,10-dioxo-3-isopropoxycarbonyl-1-(2',3',6'-trideoxy-3'-trifluoroacetamido-L-lyxohexopyranose)-3,4,5,10-tetrahydro-1H-naphtho-[2,3-c]-pyran] | 640 | 2000 | 370 | 730 |  |  |  |  | 
CC(=O)[C@H]1CC2=C(C(=O)c3ccccc3C2=O)[C@H](O[C@H]2C[C@H](NC(=O)C(F)(F)F)[C@H](O)[C@H](C)O2)S1 [BCH2127, (1'S, 1R, 3R)-1-(3'-trifluoroacetamido-2',3',6'-trideoxy-L-lyxohexopyranose)-3-acetyl-5,10-dioxo-3,4,5,10-tetrahydro-1H-naphtho-[2,3-c]-thiopyran] | 2700 | 4100 | 350 | 2000 |  |  |  |  | 
CCCC1OC(C(=O)NCCCN(C)C)=CC2=C1C(=O)c1ccccc1C2=O (stereo not shown) [BCH2168, 1-propyl-3-(3-dimethylaminopropylaminocarbonyl)-5,10-dihydro-5,10-dioxo-1H-naphtho-[2,3-c]-pyran] | 393 to 1200 | 980 | 180 to 276 |  |  |  |  | 573 | 
COC1OC(C(=O)NCCN2CCOCC2)=CC2=C1C(=O)c1ccccc1C2=O (stereo not shown) [BCH2171, 1-methoxy-3-[2-(N-morpholine)ethylaminocarbonyl]-5,10-dioxo-5,10-dihydro-1H-naphtho-[2,3-c]-pyran] |  |  |  |  | 398 |  |  |  | 422 to 440
C=C(C)[C@H]1CC2=C(C(=O)c3ccccc3C2=O)[C@H](OC)O1 (relative stereo) [BCH2148, (trans)-5,10-dioxo-3-isopropenyl-1-methoxy-3,4,5,10-tetrahydro-1H-naphtho-[2,3-c]-pyran] | 7500 | 9930 | 12600 |  |  |  |  | 2360 | 
COC[C@@H]1CC2=C(C(=O)c3ccccc3C2=O)[C@@H](O[C@H]2C[C@H](NC(=O)C(F)(F)F)[C@H](O)[C@H](C)O2)O1 [BCH1691, (1'S, 1R, 3S)-5,10-dioxo-3-methoxymethyl-1-(2',3',6'-trideoxy-3'-trifluoroacetamido-L-lyxohexopyranose)-3,4,5,10-tetrahydro-1H-naphtho-[2,3-c]-pyran] | 7160 | 18500 | 8830 | 4490 |  |  |  |  | 
CC(=O)O[C@H]1[C@@H](I)[C@H](O[C@H]2O[C@H](C(C)=O)CC3=C2C(=O)c2ccccc2C3=O)O[C@@H](C)[C@H]1OC(C)=O [BCH1666, (1'S,1R,3S)-methyl-(1-[2',6'-dideoxy-3'-4'-diacetoxy-2'-iodo-L-lyxohexopyranose]-5,10-dioxo-3,4,5,10-tetrahydronaphtho[2,3-c]-pyran-3-yl) ketone] | 78.3 | 205 | 272 | 125 |  |  |  |  | 
CC(=O)O[C@H]1[C@@H](I)[C@H](O[C@@H]2O[C@@H](C(C)=O)CC3=C2C(=O)c2ccccc2C3=O)O[C@@H](C)[C@H]1OC(C)=O [BCH1667, (1'S,1S,3R)-methyl-(1-[2',6'-dideoxy-3',4'-diacetoxy-2'-iodo-L-lyxohexopyranose]-5,10-dioxo-3,4,5,10-tetrahydronaphtho[2,3-c]-pyran-3-yl) ketone] | 1.6 | 89.3 | 12.2 | 13.3 |  |  |  |  | 
CC(=O)O[C@@H]1[C@H](C)O[C@@H](OC2OC(C(C)=O)CC3=C2C(=O)c2ccccc2C3=O)C[C@@H]1OC(C)=O (mixture of isomers) [BCH2118, (1'S,1S,3R) and (1'S,1R,3S)-methyl-(1-[dideoxy-2',6'-diacetoxy-3',4'-L-lyxohexopyranose]-5,10-dioxo-3,4,5,10-tetrahydronaphtho-[2,3-c]-pyran-3-yl) ketone] | 203 |  | 120 |  |  |  |  | 244 | 
COC(=O)[C@@H]1CC2=C(C(=O)c3ccccc3C2=O)[C@@H](O[C@H]2C[C@H](NC(=O)C(F)(F)F)[C@H](O)[C@H](C)O2)O1 [BCH2128, (1'S, 1R, 3S)-5,10-dioxo-3-methoxycarbonyl-1-(2',3',6'-trideoxy-3'-trifluoroacetamido-L-lyxohexopyranose)-3,4,5,10-tetrahydro-1H-naphtho-[2,3-c]-pyrano] | 1600 | 5800 | 1700 | 1400 |  |  |  |  | 
CC(C)OC(=O)[C@H]1CC2=C(C(=O)c3ccccc3C2=O)[C@H](O[C@H]2C[C@H](NC(=O)C(F)(F)F)[C@H](O)[C@H](C)O2)O1 [BCH2121] | 340 | 1300 | 210 | 340 |  |  |  |  | 
CC[C@H]1CC2=C(C(=O)c3ccccc3C2=O)[C@H](NC(C)=O)O1 (relative stereo) [BCH2027, Trans-5,10-dioxo-1-acetamido-3-ethyl-3,4,5,10-tetrahydro-1H-naphtho-[2,3-c]-pyran] | 15400 | 29000 | 7010 |  |  |  |  |  | 

— patent publication US5606037A, “Processes antineoplastic heteronaphthoquinones” (BioChem Pharma Inc., priority 1995, dated 1997)
